Measurements taken from the CheMixHub viscosity set.

Assay: xn = mol fraction of the nth substance listed
Settings: 101 kPa

OCCOCCO + COCCO
viscosity [mPa·s]
Settings	293.15 K	298.15 K	303.15 K
x2 = 0.063	32.91	25.61	18.57
x2 = 0.1046	29.55	23.08	16.7
x2 = 0.1548	25.97	20.37	14.71
x2 = 0.1955	23.41	18.4	13.26
x2 = 0.2599	19.9	15.69	11.28
x2 = 0.3032	17.82	14.1	10.11
x2 = 0.3425	16.13	12.78	9.154
x2 = 0.3978	14.02	11.13	7.954
x2 = 0.4463	12.38	9.856	7.03
x2 = 0.4981	10.82	8.633	6.143
x2 = 0.5488	9.459	7.565	5.383
x2 = 0.5957	8.321	6.686	4.755
x2 = 0.6523	7.085	5.718	4.079
x2 = 0.6987	6.176	5.003	3.59
x2 = 0.7511	5.269	4.232	3.094
x2 = 0.8021	4.393	3.612	2.67
x2 = 0.8546	3.602	2.998	2.276
x2 = 0.8964	3.013	2.551	1.995
x2 = 0.9423	2.414	2.084	1.714

CCCCCCCCN + COCCO
308.15 K
Settings	viscosity [mPa·s]
x2 = 0.1894	1.275
x2 = 0.3445	1.474
x2 = 0.4739	1.614
x2 = 0.5835	1.667
x2 = 0.6777	1.67
x2 = 0.7592	1.609
x2 = 0.8307	1.556
x2 = 0.8937	1.482
x2 = 0.9498	1.379
